Laboratory results published in patent US10071064B2, “Tincture for infusing flavonoids and methods of use” (Heart Healthy Spirits, LLC, priority 2014, dated 2018).

Key:
[1] = Near-saturated concentration of resveratrol in ethanol; type: physicochemical; details: 25° C.
Description: To deliver a 25 mg dose, 0.60 mL of tincture is required regardless of volume of beverage.

[2] = Free trans-resveratrol in beverages after adding trans-resveratrol powder, 10 micron filtered (HPLC/(+)ESI-MS/MS and HPLC/UV); type: physicochemical
Description: All beverages receiving the powder are thoroughly mixed. […] A few milliliters of each beverage are transferred to amber-colored sample vials. Samples are stored from each beverage in a refrigerator for analysis.

Row | SMILES | concentration of concentrated (near-saturated) tincture [1] [µg/mL] | appearance on adding powder to beverage ([2]; 25 mg powder in a serving volume, all beverages) | amount of bioavailable (free) resveratrol ([2]; 25 mg powder in alcoholic beverages (red wine, white wine, beer, spirits), 10 micron filtered) | measurable concentrations of free trans-resveratrol ([2]; 25 mg powder in non-alcoholic beverages (energy drink, sodas, orange juice), 10 micron filtered)
1 | Oc1ccc(/C=C/c2cc(O)cc(O)c2)cc1 [resveratrol, trans-resveratrol] | 42000 | – | – | –
2 | Oc1ccc(/C=C/c2cc(O)cc(O)c2)cc1 [trans-resveratrol powder, trans-resveratrol] | – | appears to suspend in solution forming a cloudy layer | below the minimum detection limits of the devices | none of the non-alcoholic beverages (energy drink, sodas, and orange juice) receiving the powder show any measurable concentrations of trans-resveratrol
